Reference: paper PMC8509773, “3-Pyridinylidene Derivatives of Chemically Modified Lupane and Ursane Triterpenes as Promising Anticancer Agents by Targeting Apoptosis” (International Journal of Molecular Sciences, 2021)

Assays:
[1] = system: NCI-60 cancer cell line panel; set-up: method as in PMID 33970717; details: earlier study; read-out: GI50 range against NCI-60; cited from earlier work
chorioallantoic membrane = test: HET-CAM irritation assay; details: in vivo
From the text: HET-CAM assay was used in order to assess the toxicity of compounds 6 and 7 (Figure 16); the procedure is a low-cost, unique model in biomedical research that allows the testing of the irritation potency of chemical compounds while simultaneously avoiding in vivo experiments. […] The Luepke scale was used to establish the irritation score: 0–0.9 indicates non-irritant, 1–4.9 indicates weakly irritant, 5–8.9 indicates moderately irritant, and 9–21 means strongly irritant.
Compounds 6 and 7 were also evaluated in terms of biocompatibility on mucosal tissues by using the in vivo Hen’s Egg Chorioallantoic Membrane Test (HET-CAM assay). The assay assesses a potential irritant effect on the vascular plexus of the chorioallantoic membrane. The HET-CAM method was carried out following ICCVAM recommendations published in November 2016 in Appendix G and adapted to our laboratory conditions. Thus, 300 µL of control or test solution, respectively, was applied on CAM and the alterations induced at the CAM level were monitored by means of stereomicroscopy (Discovery 8 Stereomicroscope, Zeiss), registering significant images (Axio CAM 105 color, Zeiss), before the application and after 5 min contact with the samples. All images were processed using Zeiss ZEN software, Gimp 2.8 and ImageJ software. Negative control was represented by distilled water and solvent control DMSO 0.5%, while the positive control by the sodium lauryl sulphate (SLS) 0.5% in distillate water. The test substances were tested in concentrations of 1 µM. The observation time of the produced reactions was 5 min (300 s) and the time, at which the occurrence of a particular reaction took place was recorded in seconds. Finally, the following reactions were monitored: hemorrhage—H (blood vessel bleeding), vascular lysis —L (disintegration of blood vessels), and coagulation —C (intra or extra- vascular protein denaturizing). A variety of analysis methods may be used to assess irritancy potential of test substances. One analysis method that has been used extensively used is an irritation score (IS) calculated according to the following formula: IS=5×301−SecH/300+[…]/300+9×301−SecC/300 where H = hemorrhage; L = vessel lysis; C = coagulation; Hemorrhage time (Sec H) = onset of hemorrhage reactions on CAM (in sec); Lysis time (Sec L) = onset of vessel lysis on CAM (in sec); Coagulation time (Sec C) = onset of coagulation formation on CAM (in sec). The formula comprises a factor indicating the impact of the observed effect on vascular damage, e.g., coagulation has the highest impact expressed by the multiplication factor 9. The IS values range on a scale between 0 and 21.

[2] = set-up: method as in PMID 11527742, doi:10.1007/s00044-018-2189-6, PMID 32956968; details: literature data; cited from earlier work

Compound: 3-pyridinylidene-messagenin
- GI50 [1]: 1000 to 2000 nM

Compound: CCCCCCCCCCCCOS(=O)(=O)[O-].[Na+] [SLS 0.5%, sodium laurylsulphate, reference compound]
- Type of Effect (chorioallantoic membrane): Strong irritant

Compound: 2,30-bis-(3-pyridinylidene)-platanic acid
- GI50 [1]: 1000 to 2000 nM

Compound: CC(=O)[C@@H]1CC[C@]2(C(=O)O)CC[C@]3(C)[C@H](CC[C@@H]4[C@@]5(C)CC[C@H](O)C(C)(C)[C@@H]5CC[C@]43C)[C@@H]12 [platanic acid]
- GI50 [2]: > 50000 nM
